According to US11208400B2, “Substituted 6-(1H-pyrazol-1-yl)pyrimidin-4-amine derivatives and uses thereof” (Bayer Aktiengesellschaft, priority 2016, dated 2021):

Molecular target: T1, human Npt2a (Homo sapiens, UniProt Q06495)
T1 construct: expressed in transfected cells
T1 sequence (Q06495 1-639): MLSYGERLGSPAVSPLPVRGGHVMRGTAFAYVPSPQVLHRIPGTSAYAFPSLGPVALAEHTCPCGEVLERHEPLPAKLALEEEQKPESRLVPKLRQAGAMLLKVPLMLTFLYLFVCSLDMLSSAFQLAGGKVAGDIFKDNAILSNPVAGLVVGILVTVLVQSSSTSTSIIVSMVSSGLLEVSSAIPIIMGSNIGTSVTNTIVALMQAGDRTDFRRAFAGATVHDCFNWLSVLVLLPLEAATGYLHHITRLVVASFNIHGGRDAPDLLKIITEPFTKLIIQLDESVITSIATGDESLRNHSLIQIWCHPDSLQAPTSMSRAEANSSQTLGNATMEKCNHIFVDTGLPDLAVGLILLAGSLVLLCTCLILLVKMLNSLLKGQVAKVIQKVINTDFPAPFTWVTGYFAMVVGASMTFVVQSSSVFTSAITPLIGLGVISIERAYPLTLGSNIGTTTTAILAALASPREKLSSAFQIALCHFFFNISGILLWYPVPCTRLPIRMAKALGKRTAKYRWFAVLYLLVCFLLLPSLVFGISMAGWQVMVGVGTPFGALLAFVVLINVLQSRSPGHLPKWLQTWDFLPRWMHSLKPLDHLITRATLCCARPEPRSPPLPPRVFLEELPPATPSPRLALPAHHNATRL
Test: Npt2a activity cell based assay, membrane potential dye, CHO T-REx hNpt2a cells
Conditions: doxycycline-induced, depolarization by sodium phosphate influx, average or median values if tested more than once
Outline: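 Cells were doxycycline-induced CHO T-REx hNpt2a, dye-loaded and pretreated 5 min at RT with 1 nM–50 μM compound in Na-free pH 7.4 buffer. IC50 was fit to the post/pre-trigger fluorescence ratio.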

SMILES | IC50 [nM]
COc1c(-c2ccc(C#N)cc2)nn(CC2CC2)c1Nc1cc(-n2nc(C)cc2C)ncn1 [Example 316, 4-[1-(cyclopropylmethyl)-5-{[6-(3,5-dimethyl-1H-pyrazol-1-yl)pyrimidin-4-yl]amino}-4-methoxy-1H-pyrazol-3-yl]benzonitrile] | 81
COc1c(-c2ccc(F)cc2)nn(CC2CC2)c1Nc1cc(-n2nc(C)c(C(C)=O)c2C)ncn1 [Example 317, 1-[1-(6-{[1-(cyclopropylmethyl)-3-(4-fluorophenyl)-4-methoxy-1H-pyrazol-5-yl]amino}pyrimidin-4-yl)-3,5-dimethyl-1H-pyrazol-4-yl]ethanone] | 450
COc1c(-c2ccc(C#N)cc2)nn(CC2CC2)c1Nc1cc(-n2nc(C)c(C(C)=O)c2C)ncn1 [Example 318, 4-[5-{[6-(4-acetyl-3,5-dimethyl-1H-pyrazol-1-yl)pyrimidin-4-yl]amino}-1-(cyclopropylmethyl)-4-methoxy-1H-pyrazol-3-yl]benzonitrile] | 790
CCOC(=O)c1c(C)nn(-c2cc(Nc3c(OC)c(-c4ccc(F)cc4)nn3CC3CC3)ncn2)c1C [Example 319, ethyl 1-(6-{[1-(cyclopropylmethyl)-3-(4-fluorophenyl)-4-methoxy-1H-pyrazol-5-yl]amino}pyrimidin-4-yl)-3,5-dimethyl-1H-pyrazole-4-carboxylate] | 82
CCOC(=O)c1c(C)nn(-c2cc(Nc3c(OC)c(-c4ccc(C#N)cc4)nn3CC3CC3)ncn2)c1C [Example 320, ethyl 1-(6-{[3-(4-cyanophenyl)-1-(cyclopropylmethyl)-4-methoxy-1H-pyrazol-5-yl]amino}pyrimidin-4-yl)-3,5-dimethyl-1H-pyrazole-4-carboxylate] | 71
CC(=O)c1c(C)nn(-c2cc(Nc3c(C)c(-c4ccc(C#N)cc4)nn3CC3CC3)ncn2)c1C [Example 321, 4-[5-{[6-(4-acetyl-3,5-dimethyl-1H-pyrazol-1-yl)pyrimidin-4-yl]amino}-1-(cyclopropylmethyl)-4-methyl-1H-pyrazol-3-yl]benzonitrile] | 16
Cc1cc(C)n(-c2cc(Nc3c(C)c(-c4ccc(C5CN(C(=O)OC(C)(C)C)C5)cc4)nn3C)ncn2)n1 [Example 323, tert-butyl 3-[4-(5-{[6-(3,5-dimethyl-1H-pyrazol-1-yl)pyrimidin-4-yl]amino}-1,4-dimethyl-1H-pyrazol-3-yl)phenyl]azetidine-1-carboxylate] | 660
Cc1cc(C)n(-c2cc(Nc3c(C)c(-c4ccc(C5CC5)cc4)nn3C)ncn2)n1 [Example 324, N-[3-(4-cyclopropylphenyl)-1,4-dimethyl-1H-pyrazol-5-yl]-6-(3,5-dimethyl-1H-pyrazol-1-yl)pyrimidin-4-amine] | 270
CC(=O)c1c(C)nn(-c2cc(Nc3c(C)c(-c4ccc(C#N)cc4)nn3C)ncn2)c1C [Example 337, 4-(5-{[6-(4-acetyl-3,5-dimethyl-1H-pyrazol-1-yl)pyrimidin-4-yl]amino}-1,4-dimethyl-1H-pyrazol-3-yl)benzonitrile] | 66
Cc1cc(C(F)F)n(-c2cc(Nc3nn(C)c(-c4ccc(F)cc4)c3Cl)ncn2)n1 [Example 346, N-[4-chloro-5-(4-fluorophenyl)-1-methyl-1H-pyrazol-3-yl]-6-[5-(difluoromethyl)-3-methyl-1H-pyrazol-1-yl]pyrimidin-4-amine] | 4
Cc1nn(-c2cc(Nc3c(C)c(-c4ccc(Cl)cc4)nn3CC3CC3)ncn2)c(C)c1C(C)(C)O [Example 347, 2-[1-(6-{[3-(4-chlorophenyl)-1-(cyclopropylmethyl)-4-methyl-1H-pyrazol-5-yl]amino}pyrimidin-4-yl)-3,5-dimethyl-1H-pyrazol-4-yl]propan-2-ol] | 23
Cc1nn(-c2cc(Nc3nn(C)c(-c4ccc(F)cc4)c3C)ncn2)c(C)c1C#N [Example 348, 1-(6-{[5-(4-fluorophenyl)-1,4-dimethyl-1H-pyrazol-3-yl]amino}pyrimidin-4-yl)-3,5-dimethyl-1H-pyrazole-4-carbonitrile] | 15
CCc1c(-c2ccc(F)cc2)nn(CC2CC2)c1Nc1cc(-n2nc(C)c(C#N)c2C)ncn1 [Example 349, 1-(6-{[1-(cyclopropylmethyl)-4-ethyl-3-(4-fluorophenyl)-1H-pyrazol-5-yl]amino}pyrimidin-4-yl)-3,5-dimethyl-1H-pyrazole-4-carbonitrile] | 49
Cc1cc(C)n(-c2cc(Nc3c(C)c(-c4ccncc4)nn3CC3CC3)ncn2)n1 [Example 350, N-[1-(cyclopropylmethyl)-4-methyl-3-(pyridin-4-yl)-1H-pyrazol-5-yl]-6-(3,5-dimethyl-1H-pyrazol-1-yl)pyrimidin-4-amine] | 1300
Cc1nn(-c2cc(Nc3c(C)c(-c4ccncc4)nn3CC3CC3)ncn2)c(C)c1Cl [Example 351, 6-(4-chloro-3,5-dimethyl-1H-pyrazol-1-yl)-N-[1-(cyclopropylmethyl)-4-methyl-3-(pyridin-4-yl)-1H-pyrazol-5-yl]pyrimidin-4-amine] | 65
Cc1nn(-c2cc(Nc3c(C)c(-c4ccc(C#N)cc4)nn3CC3CC3)ncn2)c(C)c1C#N [Example 352, 1-(6-{[3-(4-cyanophenyl)-1-(cyclopropylmethyl)-4-methyl-1H-pyrazol-5-yl]amino}pyrimidin-4-yl)-3,5-dimethyl-1H-pyrazole-4-carbonitrile] | 25
CCOC(=O)c1c(C)nn(-c2cc(Nc3nn(C)c(-c4ccc(Cl)cc4)c3C)ncn2)c1C [Example 353, ethyl 1-(6-{[5-(4-chlorophenyl)-1,4-dimethyl-1H-pyrazol-3-yl]amino}pyrimidin-4-yl)-3,5-dimethyl-1H-pyrazole-4-carboxylate] | 5
Cc1cc(C)n(-c2cc(Nc3c(C)c(-c4ccc(Cl)cc4)nn3C)ncn2)n1 [Example 354, N-[3-(4-chlorophenyl)-1,4-dimethyl-1H-pyrazol-5-yl]-6-(3,5-dimethyl-1H-pyrazol-1-yl)pyrimidin-4-amine] | 135
Cc1cc(C)n(-c2cc(Nc3nn(C)c(-c4ccc(Cl)cc4)c3C)ncn2)n1 [Example 355, N-[5-(4-chlorophenyl)-1,4-dimethyl-1H-pyrazol-3-yl]-6-(3,5-dimethyl-1H-pyrazol-1-yl)pyrimidin-4-amine] | 20
CCOC(=O)c1c(C)nn(-c2cc(Nc3nn(C)c(-c4ccc(F)cc4)c3Cl)ncn2)c1C [Example 356, ethyl 1-(6-{[4-chloro-5-(4-fluorophenyl)-1-methyl-1H-pyrazol-3-yl]amino}pyrimidin-4-yl)-3,5-dimethyl-1H-pyrazole-4-carboxylate] | 2
Cc1nn(-c2cc(Nc3nn(C)c(-c4ccc(F)cc4)c3Cl)ncn2)c(C)c1C1(O)CC1 [Example 357, 1-[1-(6-{[4-chloro-5-(4-fluorophenyl)-1-methyl-1H-pyrazol-3-yl]amino}pyrimidin-4-yl)-3,5-dimethyl-1H-pyrazol-4-yl]cyclopropanol] | 32
CCOC(=O)c1c(C)nn(-c2cc(Nc3c(C)c(-c4ccc(OC(F)(F)F)cc4)nn3C)ncn2)c1C [Example 361, ethyl 1-[6-({1,4-dimethyl-3-[4-(trifluoromethoxy)phenyl]-1H-pyrazol-5-yl}amino)pyrimidin-4-yl]-3,5-dimethyl-1H-pyrazole-4-carboxylate] | 31
CCOC(=O)c1c(C)nn(-c2cc(Nc3c(C)c(-c4ccc(C(F)(F)F)cc4)nn3C)ncn2)c1C [Example 362, ethyl 1-[6-({1,4-dimethyl-3-[4-(trifluoromethyl)phenyl]-1H-pyrazol-5-yl}amino)pyrimidin-4-yl]-3,5-dimethyl-1H-pyrazole-4-carboxylate] | 220
CCOC(=O)c1c(C)nn(-c2cc(Nc3c(C)c(-c4ccc(F)cc4F)nn3C)ncn2)c1C [Example 363, ethyl 1-(6-{[3-(2,4-difluorophenyl)-1,4-dimethyl-1H-pyrazol-5-yl]amino}pyrimidin-4-yl)-3,5-dimethyl-1H-pyrazole-4-carboxylate] | 150
CCOC(=O)c1c(C)nn(-c2cc(Nc3c(C)c(-c4ccc(F)cc4F)nn3CC3CC3)ncn2)c1C [Example 364, ethyl 1-(6-{[1-(cyclopropylmethyl)-3-(2,4-difluorophenyl)-4-methyl-1H-pyrazol-5-yl]amino}pyrimidin-4-yl)-3,5-dimethyl-1H-pyrazole-4-carboxylate] | 5
Cc1nn(-c2cc(Nc3c(C)c(-c4ccc(C#N)cc4)nn3CC3CC3)ncn2)c2c1C(=O)CC2 [Example 365, 4-[1-(cyclopropylmethyl)-4-methyl-5-{[6-(3-methyl-4-oxo-5,6-dihydrocyclopenta[c]pyrazol-1(4H)-yl)pyrimidin-4-yl]amino}-1H-pyrazol-3-yl]benzonitrile] | 61
Cc1nn(-c2ccc(C#N)cc2)c(C)c1Nc1cc(-n2nc(C)c(C(C)(C)O)c2C)ncn1 [Example 366, 4-[4-({6-[4-(2-hydroxypropan-2-yl)-3,5-dimethyl-1H-pyrazol-1-yl]pyrimidin-4-yl}amino)-3,5-dimethyl-1H-pyrazol-1-yl]benzonitrile] | 150
